US20120309699A1, “COMPOUNDS HAVING ANTI-INFLAMMATORY ACTIVITY” (Consejo Superior de Investigaciones Cientificas (CSIC), priority 2009, published 2012)
Entries after “also recorded” stand apart in the source; their conditions may differ.

What was measured:
haptoglobin = assay: Systemic inflammation marker haptoglobin (DSS model); assay type: in vivo, mice; settings: vs DSS group; HED 10 mg
Method: (§1) A model for intestinal inflammation based on the administration of DSS (sodium dextran sulfate) to C57BL/6 mice was used. At the present time there is no consensus about which overall is the best model for experimental colitis. The DSS model has been widely used because it has clinical, morphological and analytical characteristics which up to a point are similar to those specific to patients with ulcerative colitis or Crohn's disease.
(§2) The in vivo inflammation test was carried out using duplicates separated by a number of months. In each test each group of animals (n=8) was fed a standard diet supplemented with 2.3 mg/day/kg (animal weight) of each of the compounds, depending upon the group. This dose assumes the ingestion of 0.05 mg/day (50 μg/day) per mouse (having a mean weight of 22 grams). This dose extrapolated to a human being is equivalent to 10 mg in an adult weighing 70 kg; using the formula HED (human equivalent dose)=animal dose in mg/kg×(animal weight kg/human weight in kg)^0.33.
(§3) In each test the mice were fed for 3 weeks during which 1% DSS was included in their drink. The DSS was maintained for 8 days (and the same food as from the start). Then the DSS was withdrawn and the animals were allowed to recover for another 6 days (again with the same food).
(§4) • Monitoring of weight, food and drink ingestion. The mice in all groups were individually monitored, with weight, quantity of food ingested and water drunk each day being monitored throughout the experimental test. • Blood and water in feces. The water content of feces, as an indication of diarrhea, was evaluated using the difference in weight following evaporation in a stove. Blood was measured using reactive strips based on the guaiacol-peroxidase reaction (HealthCare Diagnosis Inc.). […] The reaction was measured using a scale from 0 (negative result) to 4 (most intense color change). • Length of colon. After sacrifice the colon was obtained from each mouse, extended and measured. […] This was evaluated by spectrophotometry at 460 nm using O-dianisidine reagent and hydrogen peroxide. The change in absorbance at 460 nm was monitored over 10 minutes in a V-630 spectrophotometer (Jasco, Tokyo, Japan). MPO activity was expressed as mU of activity/mg of fresh tissue, comparing the increase in absorbance with a standard straight line obtained using leukocyte myeloperoxidase (Sigma). • Prostaglandins in colonic mucosa. Levels of PGE2 were measured in colonic mucosa homogenates using an immunoenzyme method using a Cayman Chem. kit (USA). • “Antibody array”. […] The signal was detected by chemoluminescence. […] Signal intensities (densitometry) were analyzed using ScanAlyze software. […] The changes in cytokine levels were expressed as mean±SD in arbitrary density units. […]

fibrinogen = assay: Systemic inflammation marker fibrinogen (DSS model); assay type: in vivo, mice; settings: vs DSS group; HED 10 mg
Method: as §1, §2, §3, §4

C57BL/6 mice = assay: DSS (sodium dextran sulfate) model for intestinal inflammation: colon length, weight, DAI, appearance, colonic architecture; assay type: in vivo; settings: after 1% DSS for 8 days; HED 10 mg
Method: as §1, §2, §3
Groups included in the investigation: control (standard food), control-DSS, DSS-resveratrol (RES), DSS-piceid (PIC), DSS-resveratrol-diglucoside (DIGLUC), DSS-piceid-butyrate (BUT), DSS-piceid-octanoate (OCT).
• Monitoring of weight, food and drink ingestion. The mice in all groups were individually monitored, with weight, quantity of food ingested and water drunk each day being monitored throughout the experimental test. • Blood and water in feces. The water content of feces, as an indication of diarrhea, was evaluated using the difference in weight following evaporation in a stove. Blood was measured using reactive strips based on the guaiacol-peroxidase reaction (HealthCare Diagnosis Inc.). The samples were diluted 1:50 in saline solution and applied to the reactive strips. After 60 sec the color was compared with the template provided by the manufacturer. The reaction was measured using a scale from 0 (negative result) to 4 (most intense color change). • Length of colon. After sacrifice the colon was obtained from each mouse, extended and measured. Samples of the colonic mucosa for various tests mentioned below were obtained by scraping. • Myeloperoxidase activity in colonic mucosa. This was evaluated by spectrophotometry at 460 nm using O-dianisidine reagent and hydrogen peroxide. The change in absorbance at 460 nm was monitored over 10 minutes in a V-630 spectrophotometer (Jasco, Tokyo, Japan). MPO activity was expressed as mU of activity/mg of fresh tissue, comparing the increase in absorbance with a standard straight line obtained using leukocyte myeloperoxidase (Sigma). • Prostaglandins in colonic mucosa. Levels of PGE2 were measured in colonic mucosa homogenates using an immunoenzyme method using a Cayman Chem. kit (USA). • “Antibody array”. The “antibody array” kit from RayBiotech (“RayBio Mouse Inflammation Antibody Array 1”) was used to determine cytokines in colonic tissue samples. The “RayBio Mouse inflammation antibody arrays” are a fast and accurate system for determining the expression profile of multiple cytokines (in this case 40) in a very sensitive way. The sensitivity is 100 times greater than that of the ELISA method. The measurement was made in duplicate following the manufacturer's instructions. Membranes were blocked with blocking buffer and then incubated with 300 μg of protein for 2 hours. Finally the membranes were incubated with a cocktail of antibodies conjugated with biotin and then radish peroxidase marked with streptavidin. The signal was detected by chemoluminescence. Images were captured using a CCD camera fitted to a Biorad Chemidoc XRS imaging station. Signal intensities (densitometry) were analyzed using ScanAlyze software. […]

bifidobacteria = assay: Microbiota counts in feces: bifidobacteria; assay type: in vivo, mice; settings: HED 10 mg
Method: as §1, §2, §3, §4

COX-2 = settings: see ES2266271; cited from earlier work
enterobacteria = assay: Microbiota counts in feces: enterobacteria; assay type: in vivo, mice; settings: after administration of DSS; HED 10 mg
Method: as §1
as §2, with “kg)^0.33. […]” for “kg)^0.33.”
(§5) • Monitoring of weight, food and drink ingestion. The mice in all groups were individually monitored, with weight, quantity of food ingested and water drunk each day being monitored throughout the experimental test. • Blood and water in feces. The water content of feces, as an indication of diarrhea, was evaluated using the difference in weight following evaporation in a stove. Blood was measured using reactive strips based on the guaiacol-peroxidase reaction (HealthCare Diagnosis Inc.). […] The reaction was measured using a scale from 0 (negative result) to 4 (most intense color change). • Length of colon. After sacrifice the colon was obtained from each mouse, extended and measured. […] This was evaluated by spectrophotometry at 460 nm using O-dianisidine reagent and hydrogen peroxide. The change in absorbance at 460 nm was monitored over 10 minutes in a V-630 spectrophotometer (Jasco, Tokyo, Japan). […] Levels of PGE2 were measured in colonic mucosa homogenates using an immunoenzyme method using a Cayman Chem. kit (USA). • “Antibody array”. […] The signal was detected by chemoluminescence. […]

COX-1 = COX-1 (Homo sapiens, UniProt P23219); settings: cited from earlier work
Sequence of COX-1 (P23219 24-599): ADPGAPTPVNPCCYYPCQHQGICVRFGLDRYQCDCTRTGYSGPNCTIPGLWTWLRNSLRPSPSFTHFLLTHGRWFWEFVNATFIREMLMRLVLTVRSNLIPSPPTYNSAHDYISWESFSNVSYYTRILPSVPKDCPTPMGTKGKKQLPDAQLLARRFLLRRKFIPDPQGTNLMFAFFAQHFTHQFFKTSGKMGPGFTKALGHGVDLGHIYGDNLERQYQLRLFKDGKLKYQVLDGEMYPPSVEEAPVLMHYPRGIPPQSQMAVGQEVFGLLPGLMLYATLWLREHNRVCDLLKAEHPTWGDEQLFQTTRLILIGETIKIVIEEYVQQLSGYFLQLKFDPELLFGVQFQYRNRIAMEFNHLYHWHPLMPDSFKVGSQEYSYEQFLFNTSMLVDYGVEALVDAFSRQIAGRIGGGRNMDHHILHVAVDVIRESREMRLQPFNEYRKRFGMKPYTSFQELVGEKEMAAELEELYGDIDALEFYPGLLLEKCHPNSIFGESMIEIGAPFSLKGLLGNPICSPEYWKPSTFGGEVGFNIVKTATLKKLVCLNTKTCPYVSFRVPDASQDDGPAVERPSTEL

E. coli = assay: Microbiota counts in feces: E. coli; assay type: in vivo, mice; settings: after administration of DSS; HED 10 mg
Method: as §1
as §2, with “kg)^0.33. […]” for “kg)^0.33.”
as §5

[1] = system: pathogenic bacteria (E. coli O157, Salmonella and Listeria monocytogenes Scott A); assay: Adhesion of pathogenic bacteria to Caco-2 cell cultures; assay type: cell-based, human; settings: Caco-2, 25 μM/well, vs positive control C+
Method: (§6) We used two cell models for colon cancer to evaluate the anti-adhesion capacity of compounds derived from resveratrol against pathogenic bacteria in food: Caco-2 (a model frequently used to measure the adhesion of microorganisms) and HT-29 (a model frequently used to measure immune response to infections by enteropathogens). Caco-2 and HT-29 cells were grown in EMEM and DMEM respectively, for which 24 well plates were used at 37° C., 5% CO2, 95% air until a single layer of confluent epithelium formed (cell concentration per well 2×10^5 and 6×10^5 respectively). Pathogenic bacteria (E. coli O157, Salmonella and Listeria monocytogenes Scott A) were placed in contact with the various compounds derived from resveratrol for 1 hour and subsequently the bacteria together with the different compounds in a concentration of 25 μM/well were inoculated on the cell cultures, incubating the plates for 2 hours at 37° C., 5% CO2, 95% air. The plates were then washed 3 times with 1 ml of sterile PBS and 1 ml of distilled water with 20% of glycerol was added, and they were frozen at −70° C. to lyse the epithelial cells. […] Concentrations of the various derivatives tested were detected in the digestive tracts of experimental animals and therefore the test lay within the range of physiologically achievable concentrations.

[2] = system: pathogenic bacteria (E. coli O157, Salmonella and Listeria monocytogenes Scott A); assay: Adhesion of pathogenic bacteria to HT-29 cell cultures; assay type: cell-based, human; settings: HT-29, 25 μM/well, vs positive control C+
Method: as §6

[3] = Time of arrival and concentration of resveratrol in the colon of healthy mice; settings: gastric probang, 84 mg/kg resveratrol

Row | SMILES | Blood haptoglobin levels (haptoglobin) | Blood fibrinogen levels (fibrinogen) | General appearance of the mice (C57BL/6 mice) | Bifidobacteria count in feces (bifidobacteria; 3 weeks of supplemented diet, prior to DSS) | Transcription of COX-2 (COX-2) | Enterobacteria count in feces (enterobacteria) | Enzyme activity of COX-1 (COX-1) | E. coli count in feces (E. coli) | Adhesion of pathogenic bacteria to the intestinal epithelium [1] | Adhesion of pathogenic bacteria to intestinal epithelium [2] | Time of maximum resveratrol in the colon [3] | Bifidobacteria count in feces (bifidobacteria; after administration of DSS)
1 | OC[C@H]1O[C@@H](Oc2cc(/C=C/c3ccc(O)cc3)cc(O[C@@H]3O[C@H](CO)[C@@H](O)[C@H](O)[C@H]3O)c2)[C@H](O)[C@@H](O)[C@@H]1O [DIGLUC, trans-resveratrol-3,5-di-O-β-D-glucopyranoside] | clear tendency to improvement | most notable differences | OCT (D)≈BUT (C)>>RES≈DIGLUC≈PIC (B)>>control-DSS (A) | highest count | – | – | – | – | – | – | – | –
2 | OC[C@H]1O[C@@H](Oc2cc(O)cc(/C=C/c3ccc(O)cc3)c2)[C@H](O)[C@@H](O)[C@@H]1O [PIC, resveratrol-3-O-glucoside, reference compound] | – | – | OCT (D)≈BUT (C)>>RES≈DIGLUC≈PIC (B)>>control-DSS (A) | – | – | – | – | – | – | – | – | –
3 | Oc1ccc(/C=C/c2cc(O)cc(O)c2)cc1 [RES, trans-resveratrol, reference compound] | clear tendency to improvement | clear tendency to improvement | OCT (D)≈BUT (C)>>RES≈DIGLUC≈PIC (B)>>control-DSS (A); also recorded: better appearance than the control-DSS | – | inhibits the transcription of COX-2 | clear reduction | inhibits the enzyme activity of COX-1 | clear reduction | reduced the adhesion | reduced the adhesion | around 5 hours | slightly higher counts
